Test results taken from ChEMBL document CHEMBL4680348, “1,2,4-Thiadiazole acyclic nucleoside phosphonates as inhibitors of cysteine dependent enzymes cathepsin K and GSK-3β” (Bioorg Med Chem, 2021).

Assays:
[1] = system: SH-SY5Y; experiment: Cytotoxicity against human SH-SY5Y cells assessed as cell viability at 100 uM incubated for 72 hrs by CellTiter-Glo luminescence based assay; format: functional; details: read-out: Activity
[2] = system: HeLa S3; experiment: Cytotoxicity against human HeLa S3 cells assessed as cell viability at 100 uM incubated for 72 hrs by CellTiter-Glo luminescence based assay; format: functional; details: read-out: Activity
[3] = system: HL-60; experiment: Cytotoxicity against human HL-60 cells assessed as cell viability at 100 uM incubated for 72 hrs by CellTiter-Glo luminescence based assay; format: functional; details: read-out: Activity
[4] = Cytotoxicity against human NHDF cells assessed as cell viability at 100 uM incubated for 72 hrs by CellTiter-Glo luminescence based assay; details: read-out: Activity
[5] = system: CCRF-CEM; experiment: Cytotoxicity against human CCRF-CEM cells assessed as cell viability at 10 uM incubated for 72 hrs by CellTiter-Glo luminescence based assay; format: functional; details: read-out: Activity
[6] = system: HepG2; experiment: Cytotoxicity against human HepG2 cells assessed as cell viability at 10 uM incubated for 72 hrs by CellTiter-Glo luminescence based assay; format: functional; details: read-out: Activity
[7] = system: HeLa S3; experiment: Cytotoxicity against human HeLa S3 cells assessed as cell viability at 10 uM incubated for 72 hrs by CellTiter-Glo luminescence based assay; format: functional; details: read-out: Activity
[8] = system: CCRF-CEM; experiment: Cytotoxicity against human CCRF-CEM cells assessed as cell viability at 100 uM incubated for 72 hrs by CellTiter-Glo luminescence based assay; format: functional; details: read-out: Activity
[9] = system: HepG2; experiment: Cytotoxicity against human HepG2 cells assessed as cell viability at 100 uM incubated for 72 hrs by CellTiter-Glo luminescence based assay; format: functional; details: read-out: Activity
[10] = system: HL-60; experiment: Cytotoxicity against human HL-60 cells assessed as cell viability at 10 uM incubated for 72 hrs by CellTiter-Glo luminescence based assay; format: functional; details: read-out: Activity
[11] = biological target: T1, Cathepsin K (Homo sapiens, UniProt P43235); experiment: Inhibition of recombinant human Cathepsin K expressed in Pichia pastoris X-33 using Z-Gly-Pro-Arg-AMC as substrate preincubated for 10 mins followed by substrate addition measured after 30 mins by fluorescence based microplate reader assay
T1 sequence (P43235 whole entry): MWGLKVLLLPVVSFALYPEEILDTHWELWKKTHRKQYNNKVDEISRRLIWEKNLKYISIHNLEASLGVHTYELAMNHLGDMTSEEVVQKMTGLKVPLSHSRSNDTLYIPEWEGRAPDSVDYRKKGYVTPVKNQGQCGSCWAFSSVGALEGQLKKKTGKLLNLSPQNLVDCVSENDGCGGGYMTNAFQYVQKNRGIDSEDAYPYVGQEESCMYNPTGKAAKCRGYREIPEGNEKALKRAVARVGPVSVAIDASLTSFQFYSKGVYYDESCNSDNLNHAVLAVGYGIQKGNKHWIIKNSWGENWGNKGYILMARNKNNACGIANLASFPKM

[12] = system: SH-SY5Y; experiment: Cytotoxicity against human SH-SY5Y cells assessed as cell viability at 10 uM incubated for 72 hrs by CellTiter-Glo luminescence based assay; format: functional; details: read-out: Activity
[13] = biological target: T2, Cathepsin K (Homo sapiens) (UniProt P43235); experiment: Inhibition of recombinant human Cathepsin K expressed in Pichia pastoris X-33 assessed as residual activity at 10 uM using Z-Gly-Pro-Arg-AMC as substrate preincubated for 10 mins followed by substrate addition measured after 30 mins by fluorescence based microplate reader assay; details: time 40.0 min
T2 sequence (whole entry): T1 sequence (P43235 whole entry)

[14] = biological target: Glycogen synthase kinase-3 beta (Homo sapiens, UniProt P49841); experiment: Inhibition of human recombinant GSK3beta using GSK3 peptide as substrate preincubated for 15 mins followed by ATP addition and measured after 90 mins by ADP-Glo kinase assay
[15] = Cytotoxicity against human NHDF cells assessed as cell viability at 10 uM incubated for 72 hrs by CellTiter-Glo luminescence based assay; details: read-out: Activity

Chain of Glycogen synthase kinase-3 beta (P49841 whole entry): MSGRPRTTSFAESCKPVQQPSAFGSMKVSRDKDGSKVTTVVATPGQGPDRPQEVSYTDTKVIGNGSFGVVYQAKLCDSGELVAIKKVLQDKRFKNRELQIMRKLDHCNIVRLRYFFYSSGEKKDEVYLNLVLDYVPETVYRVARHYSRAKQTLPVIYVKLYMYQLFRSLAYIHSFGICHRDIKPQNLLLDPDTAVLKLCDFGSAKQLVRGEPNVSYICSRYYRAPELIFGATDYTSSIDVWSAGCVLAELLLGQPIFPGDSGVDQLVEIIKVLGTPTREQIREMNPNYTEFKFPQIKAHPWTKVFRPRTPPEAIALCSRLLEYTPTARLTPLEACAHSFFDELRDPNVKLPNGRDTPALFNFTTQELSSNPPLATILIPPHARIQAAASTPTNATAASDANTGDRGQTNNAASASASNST

CCOC(=O)Nc1nc(=O)n(CCOCP(=O)(O)O)s1
viability at 100 µM [1]: 105%
viability at 100 µM [2]: 96%
viability at 100 µM [3]: 100%
viability at 72 h, 100 µM [4]: 97%
viability at 10 µM [5]: 74%
viability at 10 µM [6]: 98%
viability at 10 µM [7]: 94%
viability at 100 µM [8]: 77%
viability at 100 µM [9]: 97%
viability at 10 µM [10]: 96%
IC50 [11]: 10.1 µM
viability at 10 µM [12]: 103%
Activity [13]: 39.1%
IC50 [14]: > 10 µM
viability at 72 h, 10 µM [15]: 94%

Nc1nc(=O)[nH]s1
viability at 100 µM [1]: 56%
viability at 100 µM [2]: 87%
viability at 100 µM [3]: 95%
viability at 72 h, 100 µM [4]: 49%
viability at 10 µM [5]: 120%
viability at 10 µM [6]: 87%
viability at 10 µM [7]: 100%
viability at 100 µM [8]: 4%
viability at 100 µM [9]: 54%
viability at 10 µM [10]: 98%
IC50 [11]: 6.34 µM
viability at 10 µM [12]: 99%
Activity [13]: 16.9%
IC50 [14]: > 10 µM
viability at 72 h, 10 µM [15]: 101%

O=C(/N=c1\s[nH]c(=O)n1C[C@H](O)COC(c1ccccc1)(c1ccccc1)c1ccccc1)c1ccccc1
viability at 100 µM [1]: 34%
viability at 100 µM [2]: 3%
viability at 100 µM [3]: 9%
viability at 72 h, 100 µM [4]: 79%
viability at 10 µM [5]: 81%
viability at 10 µM [6]: 91%
viability at 10 µM [7]: 45%
viability at 100 µM [8]: 5%
viability at 100 µM [9]: 37%
viability at 10 µM [10]: 93%
IC50 [11]: 14.9 µM
viability at 10 µM [12]: 96%
Activity [13]: 34.2%
IC50 [14]: > 10 µM
viability at 72 h, 10 µM [15]: 98%

CN(C)/C=N/c1nc(OC[C@H](O)COC(c2ccccc2)(c2ccccc2)c2ccccc2)ns1
viability at 100 µM [1]: 2%
viability at 100 µM [2]: 2%
viability at 100 µM [3]: 1%
viability at 72 h, 100 µM [4]: 1%
viability at 10 µM [5]: 101%
viability at 10 µM [6]: 92%
viability at 10 µM [7]: 91%
viability at 100 µM [8]: 2%
viability at 100 µM [9]: 1%
viability at 10 µM [10]: 86%
IC50 [11]: 2.63 µM
viability at 10 µM [12]: 99%
Activity [13]: 5.3%
IC50 [14]: > 10 µM
viability at 72 h, 10 µM [15]: 97%

CC(C)OP(=O)(CO[C@H](CO)Cn1sc(NC(=O)OCC2c3ccccc3-c3ccccc32)nc1=O)OC(C)C
viability at 100 µM [1]: 85%
viability at 100 µM [2]: 100%
viability at 100 µM [3]: 110%
viability at 72 h, 100 µM [4]: 100%
viability at 10 µM [5]: 82%
viability at 10 µM [6]: 102%
viability at 10 µM [7]: 99%
viability at 100 µM [8]: 82%
viability at 100 µM [9]: 92%
viability at 10 µM [10]: 103%
IC50 [11]: 9.25 µM
viability at 10 µM [12]: 102%
Activity [13]: 34.1%
IC50 [14]: > 10 µM
viability at 72 h, 10 µM [15]: 98%

CN(C)/C=N/c1nc(=O)n(C[C@H](O)COC(c2ccccc2)(c2ccccc2)c2ccccc2)s1
viability at 100 µM [1]: 3%
viability at 100 µM [2]: 1%
viability at 100 µM [3]: 2%
viability at 72 h, 100 µM [4]: 1%
viability at 10 µM [5]: 15%
viability at 10 µM [6]: 87%
viability at 10 µM [7]: 80%
viability at 100 µM [8]: 1%
viability at 100 µM [9]: 1%
viability at 10 µM [10]: 64%
IC50 [11]: 10.1 µM
viability at 10 µM [12]: 67%
Activity [13]: 28.3%
IC50 [14]: > 10 µM
viability at 72 h, 10 µM [15]: 77%
